Data published in ChEMBL document CHEMBL1137795, “Bioactive compounds from aquatic and terrestrial sources” (J Nat Prod, 1990).
Converted amounts (≈) assume the structure as drawn. The source made the active and inactive calls. No cut-off for these calls is given here. Numbered stars: 1 amine (or outer) side, 2 acyl side, 3 side chain; on linkers, the order of the positions; unused ones are H or OH. Bridge positions count the residues as written; N and C are the ends. Square brackets hold non-standard residues; d marks the D form. Peptide text beside a SMILES is read from it. X1 = CC[C@H](C)[C@@H](N[*:1])[C@@H](O)CC(=O)O[C@H](C(=O)[C@H](C)C(=O)[*:2])C(C)C; NMeY = CN[C@@H](Cc1ccc(O)cc1)C(=O)O; dNMeL = CN[C@H](CC(C)C)C(=O)O; Lac = C[C@H](O)C(=O)O

Legend:
L1210 = test: Cytotoxicity against mouse L1210 cells; type: functional, cell-based
Human alphaherpesvirus 1 [1] = test: Antiviral activity against HSV1 assessed as reduction in plaque formation at 20 ng; type: functional, organism-based
Human alphaherpesvirus 1 [2] = test: Antiviral activity against HSV1 assessed as reduction in plaque formation at 780 ng; type: functional, organism-based
[3] = test system: Vesicular stomatitis virus; test: Antiviral activity against VSV assessed as reduction in plaque formation at 20 ng; type: functional, organism-based
[4] = test system: Vesicular stomatitis virus; test: Antiviral activity against VSV assessed as reduction in plaque formation at 100 ng; type: functional, organism-based
Human alphaherpesvirus 1 [5] = test: Antiviral activity against HSV1 assessed as reduction in plaque formation at 30 ng; type: functional, organism-based
[6] = test system: Vesicular stomatitis virus; test: Antiviral activity against VSV assessed as reduction in plaque formation at 30 ng; type: functional, organism-based
[7] = test system: Vesicular stomatitis virus; test: Antiviral activity against VSV assessed as reduction in plaque formation at 100 ug; type: functional, organism-based
Human alphaherpesvirus 1 [8] = test: Antiviral activity against HSV1 assessed as reduction in plaque formation at 10 ug; type: functional, organism-based
Human alphaherpesvirus 1 [9] = test: Antiviral activity against HSV1 assessed as reduction in plaque formation at 100 ug; type: functional, organism-based
P388 [10] = test: In vivo antitumor activity against mouse P388 cells at 3.8 ug/kg relative to control; type: functional
B16 = test: In vivo antitumor activity against mouse B16 cells at 10 ug/kg relative to control; type: functional
P388 [11] = test: In vivo antitumor activity against mouse P388 cells at 250 ug/kg relative to control; type: functional
P388 [12] = test: In vivo antitumor activity against mouse P388 cells at 15 ug/kg relative to control; type: functional

Q: With CC[C@H](C)[C@@H]1NC(=O)[C@@H](NC(=O)[C@@H](CC(C)C)N(C)C(=O)[C@@H]2CCCN2C(=O)[C@H](C)OC(C)=O)[C@@H](C)OC(=O)[C@H](Cc2ccc(OC)cc2)N(C)C(=O)[C@@H]2CCCN2C(=O)[C@H](CC(C)C)NC(=O)[C@@H](C)C(=O)[C@H](C(C)C)OC(=O)C[C@@H]1OC(C)=O as the compound, how does the IC50 (L1210) read?
A: 1.6 ng/mL (≈ 1.34 nM)

Q: Which Activity (Human alphaherpesvirus 1 [1]) does the source give for CC(=O)O[C@H]1C[C@]2(C)[C@H]3[C@H](O)C(=O)[C@]4(C)[C@@H](c5ccc(=O)oc5)CC[C@]4(O)[C@@H]3CC[C@]2(O)C[C@H]1OC(C)=O here?
A: inactive

Q: What about the Activity (Human alphaherpesvirus 1 [2]) of the same compound?
A: Active

Q: And the AC50 [3]?
A: Not Active

Q: With CC(=O)O[C@@H]1C[C@@]2(O)CC[C@@H]3[C@H]([C@H](O)C(=O)[C@]4(C)[C@@H](c5ccc(=O)oc5)CC[C@]34O)[C@@]2(C)C[C@@H]1O as the compound, how does the Activity [4] read?
A: inactive

Q: Which Activity [4] does the source give for CC(=O)O[C@H]1C[C@]2(C)[C@H]3[C@H](O)C(=O)[C@]4(C)[C@@H](c5ccc(=O)oc5)CC[C@]4(O)[C@@H]3CC[C@]2(O)C[C@H]1O here?
A: inactive

Q: Which Activity (Human alphaherpesvirus 1 [5]) does the source give for CC(=O)O[C@H]1C[C@]2(C)[C@H]3[C@H](O)C(=O)[C@]4(C)[C@@H](c5ccc(=O)oc5)CC[C@]4(O)[C@@H]3CC[C@]2(O)C[C@H]1OC(=O)C(C)C here?
A: inactive

Q: What about the Activity [6] of the same compound?
A: inactive

Q: Which results are given for CCC(=O)O[C@@H]1C[C@@]2(O)CC[C@@H]3[C@H]([C@H](O)C(=O)[C@]4(C)[C@@H](c5ccc(=O)oc5)CC[C@]34O)[C@@]2(C)C[C@@H]1OC(C)=O?
A: Activity (Human alphaherpesvirus 1 [5]): inactive; Activity [6]: inactive; Activity [4]: inactive

Q: NC(=O)c1ncn([C@@H]2O[C@H](CO)[C@@H](O)[C@H]2O)n1 was tested. Which Activity [7] did it give?
A: Active

Q: With Nc1nc2c(ncn2COCCO)c(=O)[nH]1 as the compound, how does the Activity (Human alphaherpesvirus 1 [8]) read?
A: Active

Q: What about the Activity (Human alphaherpesvirus 1 [9]) of the same compound?
A: Active

Q: What does the source list for Nc1ncnc2c1ncn2[C@@H]1O[C@H](CO)[C@@H](O)[C@@H]1O?
A: Activity (Human alphaherpesvirus 1 [8]): inactive; Activity (Human alphaherpesvirus 1 [9]): Active

Q: For CC[C@H](C)[C@H]1NC(=O)[C@@H](NC(=O)[C@@H](CC(C)C)NC)[C@@H](C)OC(=O)[C@H](Cc2ccc(OC)cc2)N(C)C(=O)[C@@H]2CCCN2C(=O)[C@H](CC(C)C)NC(=O)[C@@H](C)C(=O)[C@H](C(C)C)OC(=O)C[C@@H]1O [DIDEMNIN A] (H-[dNMeL]T[X1]LP[NMeY](Me); ester 2-C), which IC50 (L1210) is on record?
A: 14 ng/mL (≈ 14.8 nM)

Q: CC[C@H](C)[C@H]1NC(=O)[C@@H](NC(=O)[C@@H](CC(C)C)N(C)C(=O)[C@H](C)O)[C@@H](C)OC(=O)[C@H](Cc2ccc(OC)cc2)N(C)C(=O)[C@@H]2CCCN2C(=O)[C@H](CC(C)C)NC(=O)[C@@H](C)C(=O)[C@H](C(C)C)OC(=O)C[C@@H]1O [DIDEMNIN C] (H-[Lac][dNMeL]T[X1]LP[NMeY](Me); ester 3-C) was tested. Which IC50 (L1210) did it give?
A: 11 ng/mL (≈ 10.8 nM)

Q: How did the IC50 (L1210) turn out when CC[C@H](C)[C@@H]1NC(=O)[C@@H](NC(=O)[C@@H](CC(C)C)N(C)C(=O)[C@@H]2CCCN2C(=O)[C@H](C)OC(=O)[C@H](CCC(=O)O)NC(=O)[C@H](CCC(N)=O)NC(=O)[C@H](CCC(N)=O)NC(=O)[C@@H](N)CCC(N)=O)[C@@H](C)OC(=O)[C@H](Cc2ccc(OC)cc2)N(C)C(=O)[C@@H]2CCCN2C(=O)[C@H](CC(C)C)NC(=O)[C@@H](C)C(=O)[C@H](C(C)C)OC(=O)C[C@@H]1O [DIDEMNIN D] was run?
A: 5 ng/mL (≈ 3.08 nM)

Q: With CC[C@H](C)[C@@H]1NC(=O)[C@@H](NC(=O)[C@@H](CC(C)C)N(C)C(=O)[C@@H]2CCCN2C(=O)[C@H](C)OC(=O)[C@H](CCC(=O)O)NC(=O)[C@H](CCC(N)=O)NC(=O)[C@@H](N)CCC(N)=O)[C@@H](C)OC(=O)[C@H](Cc2ccc(OC)cc2)N(C)C(=O)[C@@H]2CCCN2C(=O)[C@H](CC(C)C)NC(=O)[C@@H](C)C(=O)[C@H](C(C)C)OC(=O)C[C@@H]1O [DIDEMNIN E] as the compound, how does the IC50 (L1210) read?
A: 3 ng/mL (≈ 2 nM)

Q: For CC[C@H](C)[C@@H]1NC(=O)[C@@H](NC(=O)[C@@H](CC(C)C)N(C)C=O)[C@@H](C)OC(=O)[C@H](Cc2ccc(OC)cc2)N(C)C(=O)[C@@H]2CCCN2C(=O)[C@H](CC(C)C)NC(=O)[C@@H](C)C(=O)[C@H](C(C)C)OC(=O)C[C@@H]1O [DIDEMNIN G], which IC50 (L1210) is on record?
A: 6 ng/mL (≈ 6.18 nM)

Q: With CCCCCCC[C@@H](O)CC(=O)N[C@@H](CCC(N)=O)C(=O)N[C@@H](CCC(N)=O)C(=O)N[C@@H](CCC(=O)O)C(=O)O[C@@H](C)C(=O)N1CCC[C@H]1C(=O)N(C)[C@H](CC(C)C)C(=O)N[C@@H]1C(=O)N[C@@H]([C@@H](C)CC)[C@@H](O)CC(=O)O[C@@H](C(C)C)C(=O)[C@H](C)C(=O)N[C@@H](CC(C)C)C(=O)N2CCC[C@H]2C(=O)N(C)[C@@H](Cc2ccc(OC)cc2)C(=O)O[C@@H]1C [DIDEMNIN X] as the compound, how does the IC50 (L1210) read?
A: 4.4 ng/mL (≈ 2.64 nM)

Q: CCCCCCC[C@@H](O)CC(=O)N[C@@H](CCC(N)=O)C(=O)N[C@@H](CCC(N)=O)C(=O)N[C@@H](CCC(N)=O)C(=O)N[C@@H](CCC(=O)O)C(=O)O[C@@H](C)C(=O)N1CCC[C@H]1C(=O)N(C)[C@H](CC(C)C)C(=O)N[C@@H]1C(=O)N[C@@H]([C@@H](C)CC)[C@@H](O)CC(=O)O[C@@H](C(C)C)C(=O)[C@H](C)C(=O)N[C@@H](CC(C)C)C(=O)N2CCC[C@H]2C(=O)N(C)[C@@H](Cc2ccc(OC)cc2)C(=O)O[C@@H]1C [DIDEMNIN Y] was tested. Which IC50 (L1210) did it give?
A: 5.6 ng/mL (≈ 3.12 nM)

Q: CC[C@H](C)[C@@H]1NC(=O)[C@@H](NC(=O)[C@@H](CC(C)C)NC)[C@@H](C)OC(=O)[C@H](Cc2ccc(OC)cc2)N(C)C(=O)[C@@H]2CCCN2C(=O)[C@H](CC(C)C)NC(=O)[C@@H](C)C(O)[C@H](C(C)C)OC(=O)C[C@@H]1O (some centres undefined) [DIHYDRODIDEMNIN A] was tested. Which IC50 (L1210) did it give?
A: 520 ng/mL (≈ 550 nM)

Q: With COc1cc2c(cc1O)CCN[C@]21CS[C@@H]2c3c(OC(C)=O)c(C)c4c(c3[C@H](COC1=O)N1[C@@H]2[C@@H]2N[C@@H](Cc3cc(C)c(OC)c(O)c32)[C@@H]1O)OCO4 [ECTEINASCIDIN 729] as the compound, how does the T/C (P388 [10]) read?
A: 214%

Q: And the T/C (B16)?
A: 246%

Q: With COc1cc2c(cc1O)CCN[C@]21CS[C@@H]2c3c(OC(C)=O)c(C)c4c(c3[C@H](COC1=O)N1C[C@@H]3Cc5cc(C)c(OC)c(O)c5[C@H]([C@H]21)N3C)OCO4 [ECTEINASCIDIN 745] as the compound, how does the IC50 (L1210) read?
A: 88 ng/mL (≈ 118 nM)

Q: What about the T/C (P388 [11]) of the same compound?
A: 111%

Q: For CC[C@H](C)[C@@H]1NC(=O)[C@@H](N2CN(C)[C@H](CC(C)C)C2=O)[C@@H](C)OC(=O)[C@H](Cc2ccc(OC)cc2)N(C)C(=O)[C@@H]2CCCN2C(=O)[C@H](CC(C)C)NC(=O)[C@@H](C)C(=O)[C@H](C(C)C)OC(=O)C[C@@H]1O [METHYLENE DIDEMNIN A], which IC50 (L1210) is on record?
A: 6.5 ng/mL (≈ 6.8 nM)

Q: With CC[C@H](C)[C@@H]1NC(=O)[C@@H](NC(=O)[C@@H](CC(C)C)N(C)C(C)=O)[C@@H](C)OC(=O)[C@H](Cc2ccc(OC)cc2)N(C)C(=O)[C@@H]2CCCN2C(=O)[C@H](CC(C)C)NC(=O)[C@@H](C)C(=O)[C@H](C(C)C)OC(=O)C[C@@H]1OC(C)=O [N,O-DIACETYLDIDEMNIN A] as the compound, how does the IC50 (L1210) read?
A: 15 ng/mL (≈ 14.6 nM)

Q: Which IC50 (L1210) does the source give for CC[C@H](C)[C@@H]1NC(=O)[C@@H](NC(=O)[C@@H](CC(C)C)N(C)C(C)=O)[C@@H](C)OC(=O)[C@H](Cc2ccc(OC)cc2)N(C)C(=O)[C@@H]2CCCN2C(=O)[C@H](CC(C)C)NC(=O)[C@@H](C)C(=O)[C@H](C(C)C)OC(=O)C[C@@H]1O [N-ACETYLDIDEMNIN A] here?
A: 2.4 ng/mL (≈ 2.44 nM)

Q: CC[C@H](C)[C@@H]1NC(=O)[C@@H](NC(=O)[C@@H](CC(C)C)N(C)C(=O)[C@@H]2CCCN2C(=O)[C@H](C)OC(C)=O)[C@H](C)OC(=O)[C@H](Cc2ccc(OC)cc2)N(C)C(=O)[C@@H]2CCCN2C(=O)[C@H](CC(C)C)NC(=O)[C@@H](C)C(=O)[C@H](C(C)C)OC(=O)C[C@@H]1O [NORDIDEMNIN B] was tested. Which IC50 (L1210) did it give?
A: 7.8 ng/mL (≈ 6.76 nM)

Q: With COc1cc2c(cc1O)CCN[C@]21CS[C@@H]2c3c(OC(C)=O)c(C)c4c(c3[C@H](COC1=O)N1[C@@H]2[C@H]2c3c(cc(C)c(OC)c3O)C[C@@H]([C@@H]1O)N2C)OCO4 [TRABECTEDIN] as the compound, how does the IC50 (L1210) read?
A: 0.5 ng/mL (≈ 0.656 nM)

Q: What about the T/C (P388 [12]) of the same compound?
A: 167%
